Results as given in the NIST ThermoML archive (doi:10.1016/j.jct.2009.07.005).

Legend:
[1] = molar heat capacity at constant pressure; conditions: 101.33 kPa, Liquid, Small sample (50 mg) DSC
[2] = xn = mol fraction of the nth substance listed; conditions: 101 kPa, Liquid, Small sample (50 mg) DSC
[3] = molar heat capacity at constant pressure; xn = mol fraction of the nth substance listed; conditions: 101 kPa, Liquid, Small sample (50 mg) DSC

C1CNCCN1 [piperazine]
[1]
Conditions	molar heat capacity at constant pressure [J/K/mol]
393.2 K	216.3
398.2 K	218.7
403.2 K	220.5
408.2 K	222.8
413.2 K	225

C1CNCCN1 [piperazine] + CN(CCO)CCO
Conditions	excess molar heat capacity, x1 = 0.1 [J/K/mol]	excess molar heat capacity, x1 = 0.2 [J/K/mol]	excess molar heat capacity, x1 = 0.3 [J/K/mol]	excess molar heat capacity, x1 = 0.4 [J/K/mol]	molar heat capacity at constant pressure, x1 = 0.1 [J/K/mol]	molar heat capacity at constant pressure, x1 = 0.2 [J/K/mol]	molar heat capacity at constant pressure, x1 = 0.3 [J/K/mol]	molar heat capacity at constant pressure, x1 = 0.4 [J/K/mol]
[2], 303.2 K	2.3	3.92	5.4	6.21	–	–	–	–
[2], 308.2 K	2.46	4.22	5.73	6.61	–	–	–	–
[2], 313.2 K	2.63	4.52	6.06	7.01	–	–	–	–
[2], 318.2 K	2.79	4.82	6.4	7.41	–	–	–	–
[2], 323.2 K	2.97	5.11	6.74	7.82	–	–	–	–
[2], 328.2 K	3.12	5.51	7.06	8.22	–	–	–	–
[2], 333.2 K	3.29	5.82	7.41	8.62	–	–	–	–
[2], 338.2 K	3.46	6.1	7.73	9.02	–	–	–	–
[2], 343.2 K	3.63	6.4	8.06	9.42	–	–	–	–
[2], 348.2 K	3.79	6.7	8.39	9.83	–	–	–	–
[2], 353.2 K	3.95	6.99	8.72	10.23	–	–	–	–
[3], 303.2 K	–	–	–	–	264.4	256.6	248.7	240.1
[3], 308.2 K	–	–	–	–	267.7	260	252	243.3
[3], 313.2 K	–	–	–	–	271.1	263.3	255.2	246.6
[3], 318.2 K	–	–	–	–	274.4	266.7	258.5	249.8
[3], 323.2 K	–	–	–	–	277.7	270	261.8	253
[3], 328.2 K	–	–	–	–	281	273.5	265.1	256.3
[3], 333.2 K	–	–	–	–	284.4	276.8	268.4	259.5
[3], 338.2 K	–	–	–	–	287.7	280.2	271.6	262.7
[3], 343.2 K	–	–	–	–	291.1	283.5	274.9	266
[3], 348.2 K	–	–	–	–	294.4	286.9	278.2	269.2
[3], 353.2 K	–	–	–	–	297.7	290.2	281.4	272.4

C1CNCCN1 [piperazine] + O
Conditions	excess molar heat capacity, x1 = 0.05 [J/K/mol]	excess molar heat capacity, x1 = 0.1 [J/K/mol]	excess molar heat capacity, x1 = 0.15 [J/K/mol]	excess molar heat capacity, x1 = 0.2 [J/K/mol]	molar heat capacity at constant pressure, x1 = 0.05 [J/K/mol]	molar heat capacity at constant pressure, x1 = 0.1 [J/K/mol]	molar heat capacity at constant pressure, x1 = 0.15 [J/K/mol]	molar heat capacity at constant pressure, x1 = 0.2 [J/K/mol]
[2], 303.2 K	2.16	3.88	5.53	7.95	–	–	–	–
[2], 308.2 K	2.37	4.28	6.13	8.65	–	–	–	–
[2], 313.2 K	2.58	4.68	6.73	9.35	–	–	–	–
[2], 318.2 K	2.78	5.08	7.33	10.05	–	–	–	–
[2], 323.2 K	2.99	5.58	7.93	10.75	–	–	–	–
[2], 328.2 K	3.2	5.98	8.53	11.45	–	–	–	–
[2], 333.2 K	3.41	6.38	9.03	12.25	–	–	–	–
[2], 338.2 K	3.62	6.78	9.53	12.95	–	–	–	–
[2], 343.2 K	3.83	7.18	10.13	13.65	–	–	–	–
[2], 348.2 K	4.04	7.58	10.63	14.35	–	–	–	–
[2], 353.2 K	4.25	7.98	11.23	15.05	–	–	–	–
[3], 303.2 K	–	–	–	–	82.5	89.4	96.1	103.7
[3], 308.2 K	–	–	–	–	82.8	90	97	104.8
[3], 313.2 K	–	–	–	–	83.2	90.6	98	105.9
[3], 318.2 K	–	–	–	–	83.5	91.2	98.9	107.1
[3], 323.2 K	–	–	–	–	83.8	92	99.9	108.2
[3], 328.2 K	–	–	–	–	84.2	92.6	100.8	109.4
[3], 333.2 K	–	–	–	–	84.5	93.3	101.7	110.6
[3], 338.2 K	–	–	–	–	84.9	93.9	102.5	111.8
[3], 343.2 K	–	–	–	–	85.3	94.6	103.5	113
[3], 348.2 K	–	–	–	–	85.6	95.2	104.4	114.1
[3], 353.2 K	–	–	–	–	86	95.9	105.3	115.3
